Measured values published in PMC3241878 (ACS chemical biology, 2011).

Target: Siderocalin (Scn; a.k.a. Lcn2, Ngal, 24p3) (Homo sapiens, UniProt P80188)
Assay: intrinsic fluorescence quenching titration
Assay type: binding
Details: pH 7.4, TBS, 5% DMSO, 32 μg/mL ubiquitin, 100 nM protein; ferric complex

Siderocalin (Scn; a.k.a. Lcn2, Ngal, 24p3), sequence (P80188 21-198): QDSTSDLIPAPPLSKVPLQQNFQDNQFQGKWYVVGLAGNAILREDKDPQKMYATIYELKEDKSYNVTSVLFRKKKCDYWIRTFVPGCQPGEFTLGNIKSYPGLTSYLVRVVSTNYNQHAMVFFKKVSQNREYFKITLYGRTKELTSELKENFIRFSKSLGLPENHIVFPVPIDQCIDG

In the case of Fe^IIICMB (n = 3), the Kd is reported as > 9 µM.

Fe^IIICMB (n = 4) was tested, and the “Kd (μM)” value was 2.36 ± 9.0×10^−3 μM.

For Fe^IIICMB-5 [n = 5], the “Kd (μM)” value was 1.10 ± 2.6×10^−2 μM.

Fe^IIICMB-6 [n = 6] was tested, and the “Kd (μM)” value was 0.654 ± 2.2×10^−2 μM.

In the case of Fe^IIICMB-7 [n = 7], the “Kd (μM)” value is reported as 0.128 ± 1.0×10^−3 μM.
